Data from ChEMBL document CHEMBL1158210, “New Destruxins from the Entomopathogenic Fungus Aschersonia sp” (1996).
In brackets after ≈: the same amount, converted by molar mass. Activity calls are given as the source filed them. The rule behind the calls is not given here. Starred links: 1 amine or outer side, 2 acyl side, 3 side chain; linkers in the order of their positions; H or OH if unused. Non-standard residues stand in square brackets, D forms with d. Residues, ends and D or L forms follow the SMILES beside them. NMeI = CC[C@H](C)[C@H](NC)C(=O)O; X1 = C=CC[C@H](O[*:1])C(=O)[*:2]; Hica(2S) = CC(C)C[C@H](O)C(=O)O; NMeA = CN[C@@H](C)C(=O)O; βAla = NCCC(=O)O

Key:
Drosophila melanogaster [1] = assay: Insecticidal activity against Drosophila melanogaster assessed as mortality at 400 ug/ml after 48 hrs; type: functional, organism-based
Drosophila melanogaster [2] = assay: Insecticidal activity against Drosophila melanogaster assessed as mortality at 200 ug/ml after 40 hrs; type: functional, organism-based
Drosophila melanogaster [3] = assay: Insecticidal activity against Drosophila melanogaster after 40 hrs; type: functional

SMILES | Activity (Drosophila melanogaster [1]) | Activity (Drosophila melanogaster [2]) | LC50 (Drosophila melanogaster [3]) [µg/mL]
CC[C@H](C)[C@@H]1NC(=O)[C@@H]2CCCN2C(=O)[C@H](CC(C)C)OC(=O)CCNC(=O)[C@H](C)N(C)C(=O)[C@H]([C@@H](C)CC)N(C)C1=O (cyclo(I[NMeI][NMeA][βAla][Hica(2S)]P)) | inactive |  | 
C=CCC1OC(=O)CCNC(=O)[C@H](C)N(C)C(=O)[C@H]([C@@H](C)CC)N(C)C(=O)[C@H]([C@@H](C)CC)NC(=O)[C@@H]2C(C)CCN2C1=O (stereo not given in full) [DESTRUXIN A5] |  | Active | 52 (≈ 85.8 µM)
C=CC[C@@H]1OC(=O)CCNC(=O)[C@H](C)N(C)C(=O)[C@H]([C@@H](C)CC)N(C)C(=O)[C@H]([C@@H](C)CC)NC(=O)[C@@H]2CCCN2C1=O [destruxin A4] (cyclo(I[NMeI][NMeA][βAla][X1]P)) |  | Active | 41 (≈ 69.3 µM)
